Experimental data reported in US20250059164A1, “IRAK DEGRADERS AND USES THEREOF” (Kymera Therapeutics, Inc., priority 2023, published 2025).

Assays:
IRAK4 = target: T1, IRAK4 (Homo sapiens, UniProt Q9NWZ3); experiment: IRAK4 MSD degradation in OCI-LY10; format: cell-based; conditions: OCI-LY10 cells, 24 hrs, Meso Scale Discovery
T1 construct: endogenous in cells; host or cells: OCI-LY10
T1 sequence (Q9NWZ3 1-460): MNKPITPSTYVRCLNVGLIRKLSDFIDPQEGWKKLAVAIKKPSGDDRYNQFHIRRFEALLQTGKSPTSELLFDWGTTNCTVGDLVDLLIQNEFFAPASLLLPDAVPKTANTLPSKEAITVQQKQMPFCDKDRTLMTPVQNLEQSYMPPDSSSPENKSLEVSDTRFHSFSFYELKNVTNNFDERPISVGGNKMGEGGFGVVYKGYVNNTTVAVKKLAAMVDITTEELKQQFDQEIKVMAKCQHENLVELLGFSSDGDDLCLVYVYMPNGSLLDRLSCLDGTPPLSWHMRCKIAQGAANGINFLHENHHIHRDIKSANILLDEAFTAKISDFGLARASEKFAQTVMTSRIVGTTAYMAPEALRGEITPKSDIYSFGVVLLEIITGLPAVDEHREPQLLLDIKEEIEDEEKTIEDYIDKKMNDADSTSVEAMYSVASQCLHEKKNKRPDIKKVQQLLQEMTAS
Summary of the method: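 Remaining IRAK4 protein measured by Meso Scale Discovery electrochemiluminescence sandwich assay on lysates of OCI-LY10 cells. Cells were exposed for 4 to 24 hours (37° C., 5% CO2) to eight 1:3-diluted concentrations starting at 1 to 10 μM. DC50 derived by three-parameter logistic fitting.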

[1] = Rodent pharmacokinetics (rat PK); format: in vivo; conditions: po, dosed intravenously or orally by gavage, plasma, read-out: F % (bioavailability)
Summary of the method: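 F % is reported as a letter code: A for ≥5%, B for ≤5%. It was derived from rat plasma profiles after intravenous or oral gavage dosing, with jugular vein sampling from predose to 24 h (5 min point for IV only).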

DC50 (IRAK4)	bioavailability [1]	Structure (SMILES)
> 200 nM	≤ 5%	O=C1CCN(c2cc(C(=O)N3CCN(C[C@H]4CC[C@H](n5cc6cc(NC(=O)c7cncc(C(F)(F)F)n7)ccc6n5)CC4)CC3)ncc2Cl)C(=O)N1 [I-305]
< 10 nM	≤ 5%	Cc1cncc(C(=O)Nc2ccc3nn([C@H]4CC[C@H](CN5CC[C@@H](c6cccc7c6n(C)c(=O)n7C6CCC(=O)NC6=O)[C@H](F)C5)CC4)cc3c2)n1 (some centres unmarked) [I-307]
< 10 nM	≤ 5%	COc1cc2nc([C@H]3CC[C@H](CN4CC[C@@H](c5cccc6c5n(C)c(=O)n6C5CCC(=O)NC5=O)[C@H](F)C4)CC3)cn2cc1NC(=O)c1cncc(C(F)(F)F)n1 (some centres unmarked) [I-308]
< 10 nM	≤ 5%	Cc1cncc(C(=O)Nc2cc3cn([C@H]4CC[C@H](CN5CC[C@@H](c6cccc7c6n(C)c(=O)n7C6CCC(=O)NC6=O)[C@H](F)C5)CC4)nc3cn2)n1 (some centres unmarked) [I-310]
< 10 nM	≤ 5%	Cn1c(=O)n(C2CCC(=O)NC2=O)c2cccc([C@@H]3CCN(C[C@H]4CC[C@H](n5cc6cc(NC(=O)c7cncc(C8CC8)n7)ccc6n5)CC4)C[C@H]3F)c21 (some centres unmarked) [I-311]
10 to 100 nM	≤ 5%	Cc1nn(C2CCC(=O)NC2=O)c2cccc(N3CCC4(CCN(C[C@H]5CC[C@H](n6cc7cc(NC(=O)c8cncc(C#N)c8)c(C(C)(C)O)cc7n6)CC5)CC4(F)F)CC3)c12 (some centres unmarked) [I-312]
< 10 nM	≤ 5%	Cn1c(=O)n(C2CCC(=O)NC2=O)c2cccc([C@@H]3CCN(C[C@H]4CC[C@H](n5cc6cc(NC(=O)c7cncc(C(F)F)n7)ncc6n5)CC4)C[C@H]3F)c21 (some centres unmarked) [I-321]
< 10 nM	≤ 5%	Cn1c(=O)n(C2CCC(=O)NC2=O)c2cccc([C@@H]3CCN(C[C@H]4CC[C@H](n5cc6cc(NC(=O)c7cncc(C(C)(C)C)n7)ncc6n5)CC4)C[C@H]3F)c21 (some centres unmarked) [I-322]
< 10 nM	≤ 5%	Cn1c(=O)n(C2CCC(=O)NC2=O)c2cccc([C@@H]3CCN(C[C@H]4CC[C@H](n5cc6cc(NC(=O)c7cncc(C(F)F)n7)ccc6n5)CC4)C[C@H]3F)c21 (some centres unmarked) [I-323]
< 10 nM	≤ 5%	Cn1c(=O)n(C2CCC(=O)NC2=O)c2cccc([C@@H]3CCN(C[C@H]4CC[C@H](n5cc6cc(NC(=O)c7cncc(C(C)(C)C)n7)ccc6n5)CC4)C[C@H]3F)c21 (some centres unmarked) [I-324]
< 10 nM	≥ 5%	Cn1c(=O)n(C2CCC(=O)NC2=O)c2cccc(N3CC4(CCN(C[C@H]5CC[C@H](n6cc7cc(NC(=O)c8cncc(C(F)(F)F)n8)c(C(C)(C)O)cc7n6)CC5)CC4(F)F)C3)c21 (some centres unmarked) [I-326]
< 10 nM	≤ 5%	Cn1c(=O)n(C2CCC(=O)NC2=O)c2cccc([C@@H]3CCN(C[C@H]4CC[C@H](n5cc6cc(NC(=O)c7cncc(OC(F)F)n7)ncc6n5)CC4)C[C@H]3F)c21 (some centres unmarked) [I-337]
< 10 nM	≤ 5%	Cn1c(=O)n(C2CCC(=O)NC2=O)c2cccc([C@@H]3CCN(C[C@H]4CC[C@H](n5cc6cc(NC(=O)c7cncc(C8CC8)n7)ncc6n5)CC4)C[C@H]3F)c21 (some centres unmarked) [I-338]
< 10 nM	≤ 5%	Cn1c(=O)n(C2CCC(=O)NC2=O)c2cccc([C@@H]3CCN(C[C@H]4CC[C@H](n5cc6cc(NC(=O)c7cncc(OC(F)F)n7)ccc6n5)CC4)C[C@H]3F)c21 (some centres unmarked) [I-339]
< 10 nM	≤ 5%	Cc1cncc(C(=O)Nc2cc3cn([C@H]4CC[C@H](CN5CCC6(CN(c7cccc8c7n(C)c(=O)n8C7CCC(=O)NC7=O)C6)C(F)(F)C5)CC4)nc3cc2C(C)(C)O)c1 (some centres unmarked) [I-342]
< 10 nM	≤ 5%	Cn1c(=O)n(C2CCC(=O)NC2=O)c2cccc([C@@H]3CCN(C[C@H]4CC[C@H](c5cn6cc(NC(=O)c7cncc(C(F)(F)F)n7)c(C(C)(C)O)cc6n5)CC4)C[C@H]3F)c21 (some centres unmarked) [I-343]
< 10 nM	≤ 5%	Cn1c(=O)n(C2CCC(=O)NC2=O)c2cccc([C@@H]3CCN(C[C@H]4CC[C@H](n5cc6cc(NC(=O)c7cncc(C(F)(F)F)n7)c(S(C)(=O)=O)cc6n5)CC4)C[C@H]3F)c21 (some centres unmarked) [I-346]
< 10 nM	≥ 5%	COc1ccc2c(c1[C@@H]1CCN(C[C@H]3CC[C@H](n4cc5cc(NC(=O)c6cncc(C(F)(F)F)n6)ccc5n4)CC3)C[C@H]1F)n(C)c(=O)n2C1CCC(=O)NC1=O (some centres unmarked) [I-347]
< 10 nM	≤ 5%	COc1ccc2c(c1[C@H]1CCN(C[C@H]3CC[C@H](n4cc5cc(NC(=O)c6cncc(C(F)(F)F)n6)ccc5n4)CC3)C[C@@H]1F)n(C)c(=O)n2C1CCC(=O)NC1=O (some centres unmarked) [I-352]

DC50 (IRAK4)	bioavailability [1]	Structure (SMILES)
< 10 nM	≤ 5%	COc1cc(NC(=O)c2cncc(C(F)(F)F)n2)cc2cn([C@H]3CC[C@H](CN4CC[C@@H](c5cccc6c5n(C)c(=O)n6C5CCC(=O)NC5=O)[C@H](F)C4)CC3)nc12 (some centres unmarked) [I-355]
< 10 nM	≤ 5%	Cn1c(=O)n(C2CCC(=O)NC2=O)c2cccc([C@@H]3CCN(C[C@H]4CC[C@H](n5cc6cc(NC(=O)c7cncc(C(F)(F)F)n7)cc(F)c6n5)CC4)C[C@H]3F)c21 (some centres unmarked) [I-356]
< 10 nM	≤ 5%	Cc1cncc(C(=O)Nc2cc3cn([C@H]4CC[C@H](CN5CCC6(CCN(c7cccc8c7n(C)c(=O)n8C7CCC(=O)NC7=O)CC6)C(F)(F)C5)CC4)nc3cc2C(C)(C)O)c1 (some centres unmarked) [I-361]
100 to 200 nM	≤ 5%	Cn1c(=O)n(C2CCC(=O)NC2=O)c2cccc(N3CCC4(CCN(C[C@H]5CC[C@H](c6nc7cc(C(C)(C)O)c(NC(=O)c8cncc(C#N)c8)cc7s6)CC5)CC4(F)F)CC3)c21 (some centres unmarked) [I-364]
< 10 nM	≥ 5%	Cn1c(=O)n(C2CCC(=O)NC2=O)c2cccc(N3CCC4(CCN(C[C@H]5CC[C@H](n6cc7cc(NC(=O)c8cncc(C(F)(F)F)c8)c(C(C)(C)O)cc7n6)CC5)CC4(F)F)CC3)c21 (some centres unmarked) [I-365]
< 10 nM	≤ 5%	Cn1c(=O)n(C2CCC(=O)NC2=O)c2cccc(N3CC4(CCN(C[C@H]5CC[C@H](n6cc7cc(NC(=O)c8cncc(C#N)c8)c(C(C)(C)O)cc7n6)CC5)CC4(F)F)C3)c21 (some centres unmarked) [I-366]
10 to 100 nM	≥ 5%	Cn1c(=O)n(C2CCC(=O)NC2=O)c2cccc(N3CC4(CCN(C[C@H]5CC[C@H](c6nc7cc(C(C)(C)O)c(NC(=O)c8cncc(C#N)c8)cc7s6)CC5)CC4(F)F)C3)c21 (some centres unmarked) [I-367]
< 10 nM	≤ 5%	Cn1c(=O)n(C2CCC(=O)NC2=O)c2cccc(N3CC4(CCN(C[C@H]5CC[C@H](n6cc7cc(NC(=O)c8cncc(C(F)(F)F)c8)c(C(C)(C)O)cc7n6)CC5)CC4(F)F)C3)c21 (some centres unmarked) [I-373]
< 10 nM	≤ 5%	COc1cc(NC(=O)c2cncc(C(F)(F)F)n2)cc2cn([C@H]3CC[C@H](CN4CC[C@@H](c5cccc6c5n(C)c(=O)n6C5CCC(=O)NC5=O)C(F)(F)C4)CC3)nc12 (some centres unmarked) [I-374]
< 10 nM	≤ 5%	Cn1c(=O)n(C2CCC(=O)NC2=O)c2cccc([C@@H]3CCN(C[C@H]4CC[C@H](n5cc6cc(NC(=O)c7cncc(C(F)(F)F)n7)cc(F)c6n5)CC4)CC3(F)F)c21 (some centres unmarked) [I-375]
< 10 nM	≤ 5%	Cn1c(=O)n(C2CCC(=O)NC2=O)c2cccc([C@@H]3CCN(C[C@H]4CC[C@H](n5cc6cc(NC(=O)c7cncc(C(F)F)n7)ccc6n5)CC4)CC3(F)F)c21 (some centres unmarked) [I-384]
< 10 nM	≥ 5%	Cn1c(=O)n(C2CCC(=O)NC2=O)c2cccc(N3CCC4(CCN(C[C@H]5CC[C@H](n6cc7cc(NC(=O)c8cncc(F)c8)c(C(C)(C)O)cc7n6)CC5)CC4(F)F)CC3)c21 (some centres unmarked) [I-386]
< 10 nM	≤ 5%	Cn1c(=O)n(C2CCC(=O)NC2=O)c2cccc(N3CCC4(CCN(C[C@H]5CC[C@H](n6cc7cc(NC(=O)c8cncc(Cl)c8)c(C(C)(C)O)cc7n6)CC5)CC4(F)F)CC3)c21 (some centres unmarked) [I-387]
< 10 nM	≤ 5%	Cn1c(=O)n(C2CCC(=O)NC2=O)c2ccc(F)c(N3CC4(CCN(C[C@H]5CC[C@H](n6cc7cc(NC(=O)c8cncc(C#N)c8)c(C(C)(C)O)cc7n6)CC5)CC4(F)F)C3)c21 (some centres unmarked) [I-388]
< 10 nM	≤ 5%	Cn1c(=O)n(C2CCC(=O)NC2=O)c2ccc(F)c(N3CCC4(CCN(C[C@H]5CC[C@H](n6cc7cc(NC(=O)c8cncc(C#N)c8)c(C(C)(C)O)cc7n6)CC5)CC4(F)F)CC3)c21 (some centres unmarked) [I-393]
> 200 nM	≥ 5%	COc1cc(C(=O)Nc2ccc3nn([C@H]4CC[C@H](CN5CC[C@@H](c6cccc7c6n(C)c(=O)n7C6CCC(=O)NC6=O)[C@H](F)C5)CC4)cc3c2)nc(C(F)(F)F)c1 (some centres unmarked) [I-394]
> 200 nM	≥ 5%	Cc1cc(C(=O)Nc2ccc3nn([C@H]4CC[C@H](CN5CC[C@@H](c6cccc7c6n(C)c(=O)n7C6CCC(=O)NC6=O)[C@H](F)C5)CC4)cc3c2)nc(C(F)(F)F)c1 (some centres unmarked) [I-395]
> 200 nM	≤ 5%	COc1cc2nn([C@H]3CC[C@H](CN4CCC5(CCN(c6cccc7c6n(C)c(=O)n7C6CCC(=O)NC6=O)CC5)C(F)(F)C4)CC3)cc2cc1C(=O)Nc1cccc(C(F)(F)F)n1 (some centres unmarked) [I-396]
